According to patent EP2727596A1, “eEF2/eEF2K as therapeutic target for treating TNF-alpha-related diseases” (Fundación Centro Nacional de Investigaciones …, priority 2012, dated 2014):
Entries after “also recorded” stand apart in the source; their conditions may differ.

How the values were obtained:
TNFα [1] = details: healthy males; cited from earlier work
[2] = clinical use; cited from earlier work
D-Gal+LPS-treated mice = assay: D-Gal+LPS-induced liver damage (hepatitis) in mice treated with p38 inhibitors; assay type: in vivo; details: WT mice, inhibitor i.p. 15mg/kg prior to LPS injection
Text: (§1) MKK3 and MKK6 are the main regulators of the α, β, γ and δ p38MAPK isoforms. […] The specific action of these inhibitors on MAPK pathway activity was firstly examined. […] No changes in ERK or JNK phosphorylation were observed.
(§2) Mkk3^-/- (B6.129-Map2k3^tm1Flv), Mkk6^-l- (B6.129-Map2k6^tm1Flv) were as previously described. p38γ (B6.129-Mapk12^tm1) and p38δ (B6.129-Mapk13^tm1) mice were crossed with B6.129P2-Lyz2tm1(cre)Ifo/J and back-crossed for ten generations to the C57BL/6J background (The Jackson Labs) and genotyped by PCR analysis of genomic DNA. Radiation chimeras were generated by exposing recipient mice to two doses of ionizing radiation ([…]) and reconstituting them with 2x10^7 donor bone marrow cells by injection into the tail vein. […] Specificity of the depletion of cell populations was determined by flow cytometry of blood samples collected during the experiment.
Serum activities of alanine transaminase (ALT) and aspartate aminotrasferase (AST) were measured using the ALT and AST Reagent Kit (Biosystems Reagents) with a Benchmark Plus Microplate Spectrophotometer. Serum concentrations of cytokines were measured by multiplexed ELISA with a Luminex 200 analyzer (Millipore). […]

p38α/β = assay: MAPK pathway activity: phosphorylation of p38α substrate HSP27 (immunoblot); assay type: in vivo; details: mice treated prior to LPS injection
Procedure: (§3) MKK3 and MKK6 are the main regulators of the α, β, γ and δ p38MAPK isoforms.
(§4) Tissue extracts were prepared using Triton lysis buffer (20 mM Tris [pH 7.4], 1% Triton X-100, 10% glycerol, 137mM NaCl, 2mM EDTA, 25mM β-glycerophosphate, 1 mM sodium orthovanadate, 1mM phenylmethylsulfonyl fluoride, and 10µg/mL aprotinin and leupeptin). Extracts (30µg protein) and immunoprecipitates (prepared from 2 mg protein) were examined by protein immunoblot analysis with antibodies to ERK1/2, phospho-ERK1/2, phospho-MKK3/6, p38α MAPK, phospho-p38, phospho-hsp27, phospho-JNK1/2, JNK1/2, caspase 3, cleaved caspase 3, cleaved PARP and phospho-eEF2 kinase (Ser366), all from Cell Signaling and MKK3 (Pharmingen), MKK6 (Stressgen), and GAPDH and eEF2 (Santa Cruz Biotechnology). The anti-p38γ and p38δ antibodies were raised against the peptides which correspond to the C termini of the proteins.

ERK = assay: MAPK pathway activity: ERK phosphorylation (immunoblot); assay type: in vivo; details: mice treated prior to LPS injection
Procedure: as §3, §4

JNK = assay: MAPK pathway activity: JNK phosphorylation (immunoblot); assay type: in vivo; details: mice treated prior to LPS injection
Procedure: as §3, §4

TNFα [3] = assay: serum TNFα in D-Gal+LPS-treated mice (inhibitors); assay type: in vivo
Text: as §1, §2
(§5) Serum activities of alanine transaminase (ALT) and aspartate aminotrasferase (AST) were measured using the ALT and AST Reagent Kit (Biosystems Reagents) with a Benchmark Plus Microplate Spectrophotometer. Serum concentrations of cytokines were measured by multiplexed ELISA with a Luminex 200 analyzer (Millipore).

IL6 = assay: serum IL6 in D-Gal+LPS-treated mice (inhibitors); assay type: in vivo
Text: as §1, §2, §5

[4] = system: association of eEF2 with Tnfα mRNA; assay: RNA-immunoprecipitation assay: eEF2 binding to Tnfα mRNA in RAW 264.7 cells; assay type: cell-based, Mouse; details: RAW 264.7 cells pretreated 10µM for 30 min before LPS (60min)
Procedure: (A-D) BM-derived macrophages from p38γ/δ^Lyz-KO and Lyzs-cre mice were treated with LPS (10µg/ml) or TNFα (20ng/ml). Data were analyzed by two-way ANOVA coupled to Bonferroni post-tests. • (A) ELISA of TNFα and IL-6 in supernatants. • (B) qRT-PCR of Tnfα and Il-6 mRNA normalized to Gapdh, • (C) Immunoblot of BM-derived macrophage (BMM) lysates. • (D) Flow cytometry of phospho-p38 in BM-derived macrophages stimulated with LPS and TNFα for 30 min. Intracellular phospho-p38 is depicted in blue; red corresponds to the isotype control. • (D-I) Cells were treated with LPS. Tnfα mRNA was detected by qRT-PCR in immunoprecipitates (1mg protein) obtained with anti-eEF2. mRNA amounts are expressed relative to the amount detected in control IgG immunoprecipitates. Data were analyzed by Student's t-test unless otherwise indicated. • (E) Tnfα mRNA in RAW 264.7 cell immunoprecipitates. • (F) Tnfα, Hif1α, and Il-6 mRNA in RAW 264.7 cell immunoprecipitates. […] Tnfα mRNA was measured in immunoprecipitates. • (G-H) Tnfα mRNA in immunoprecipitates of BM-derived macrophages from Lyzs-cre and 38γ/δ^Lyz-KO mice (G) or WT or ΔMKK3/6 mice (H) after stimulation (60min). eEF2 in immunoprecipitates was detected by immunoblot (upper panel).
To assess whether eEF2 controls TNFα elongation it was examined the binding of eEF2 to Tnfα mRNA in immunoprecipitates of mRNA-eEF2 complexes in RAW cells. […]

p38δ = target: T1, p38δ (Mus musculus, UniProt Q9Z1B7); details: mice treated prior to LPS injection
T1 sequence (Q9Z1B7 1-366): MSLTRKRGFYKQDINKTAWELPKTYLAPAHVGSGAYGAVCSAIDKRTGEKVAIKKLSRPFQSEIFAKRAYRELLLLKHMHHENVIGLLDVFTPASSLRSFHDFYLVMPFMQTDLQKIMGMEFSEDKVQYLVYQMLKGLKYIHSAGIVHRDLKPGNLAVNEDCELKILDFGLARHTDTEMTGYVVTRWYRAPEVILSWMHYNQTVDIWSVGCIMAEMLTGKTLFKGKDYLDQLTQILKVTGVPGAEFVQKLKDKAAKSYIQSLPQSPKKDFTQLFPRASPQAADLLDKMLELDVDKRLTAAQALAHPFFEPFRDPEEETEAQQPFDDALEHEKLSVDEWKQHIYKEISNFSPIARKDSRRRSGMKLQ
Procedure: as §3, §4

Compound | inhibition of ex-vivo LPS-induced TNFα (TNFα [1]) | liver enzyme elevations [2] | D-Gal+LPS-induced liver damage (hemorrhage, apoptosis and necrosis) (D-Gal+LPS-treated mice) | inhibition of p38α/β (loss of phosphorylation of p38α substrate HSP27) (p38α/β) | ERK phosphorylation (ERK) | JNK phosphorylation (JNK) | serum levels of TNFα (TNFα [3]) | serum levels of IL6 (IL6) | association of eEF2 with Tnfα mRNA [4] | inhibition of p38δ activation (suppression of phosphorylation of its substrate eEF2K) (p38δ)
Cn1c(NC[C@@H](N)Cc2ccccc2)nc(-c2ccncc2)c(-c2ccc3ccccc3c2)c1=O [AMG 548] | > 85% | random liver enzyme elevations |  |  |  |  |  |  |  | 
Cc1ccc(-n2nc(C(C)(C)C)cc2NC(=O)Nc2ccc(OCCN3CCOCC3)c3ccccc23)cc1 [BIRB796] |  | some liver enzyme elevations | improves liver condition; also recorded: protected | efficiently inhibited | No changes | No changes | reduced | reduced | abolished | 
C[S+]([O-])c1ccc(-c2nc(-c3ccncc3)c(-c3ccc(F)cc3)[nH]2)cc1 (stereo not drawn) [SB203580] |  |  | intensifies; also recorded: exacerbated | efficiently inhibited | No changes | No changes |  |  |  | only BIRB796 was able to inhibit
